Source: the METLIN SMRT retention time set (Domingo-Almenara et al. 2019)

Assay: gradient 5% acetonitrile 3 min, to 50% in 2 min, to 85% in 15 min, held 3 min, 100 µL/min
Settings: column: Zorbax Extend-C18 2.1 x 50 mm; eluents: water / acetonitrile, 0.1% formic acid
Outline: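 Retention times come from adduct peaks that were picked computationally and then checked by hand. The standards, pure and pooled in mixtures of ~100 molecules, were run on a Zorbax Extend-C18 column (2.1 × 50 mm, 1.8 μm) at 100 μL/min with water and acetonitrile, each with 0.1% formic acid. Detection was by quadrupole time-of-flight mass spectrometry in positive and negative ionization mode, with a dead volume of 40 μL and a dwell volume of 900 μL.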

Compound | RP-LC retention time [s]
O=S(=O)(c1ccc(-c2nnc(C3CCCC3)o2)o1)N1CCOCC1 | 834
CN1c2ccc(Cl)cc2C(=O)NC12CCN(C(=O)NCc1ccc(F)cc1)CC2 | 785
Cc1cc(C)n(CCNC(=O)c2ccsc2)n1 | 593
COc1ccc2[nH]c3c(c2c1)CCNC31CCN(S(=O)(=O)c2c(C)noc2C)CC1 | 675
O=C(CCC1CCCC1)Nc1ccc(CC(=O)NC2CC2)cc1 | 738
Cc1cccc(-c2nc(-c3cn(-c4ccccc4)nn3)no2)c1 | 1060
Cc1ccc(C)c(S(=O)(=O)N2CCc3c(c(-c4nnc(-c5ccccc5)o4)nn3C)C2)c1 | 1020
Cc1ncc2c(n1)C[C@@H]1CC[C@H]2N1C(=O)COc1ccccc1 | 669
O=C(CSCc1ccccc1)NCC1(CO)CC1 | 660
O=S(=O)(c1cc(-c2nnc(C3CC3)o2)co1)N1CCCCC1 | 839
Cc1noc(-c2cc(=O)n(CC(=O)NCc3ccc4c(c3)OCO4)c3ccccc23)n1 | 802
Nc1nc(N2CCN(C3CCCCC3)CC2)ncc1C(=O)NCc1ccccc1F | 629
O=c1c2ccccc2c(-c2nc(-c3cccnc3)no2)cn1-c1cccc(F)c1 | 709
CCCC(=O)Nc1ccc(CCc2nc3ccc(C(=O)NCc4ccco4)cc3[nH]2)cc1 | 635
COCCCNC(=O)C1(CCO)CCN(Cc2ccccc2)C1 (configuration not stated) | 560
Cc1nc2cc(NC(=O)COc3ccccc3)ccc2s1 | 771
COc1ccc(C2C(C(=O)Nc3ccccn3)c3cc(OC)c(OC)cc3C(=O)N2C)cc1OC (configuration not stated) | 677
CCCC(=O)NCCc1c(I)[nH]c2ccc(OC)cc12 | 849
COCCC1CCN(C(=O)CN(C)C(=O)c2ccc3cc[nH]c3c2)CC1 | 686
COCc1nc(-c2ccc(OC3CN(Cc4ccncc4)C3)cc2)no1 | 589
Cc1ccc(C(=O)N2CCN(c3ccc(-c4noc(C5CC5)n4)cc3)CC2)s1 | 1010
COc1ccc(-c2nc3cc(C)ccn3c2NC(=O)c2cc(OC)c(OC)c(OC)c2)cc1 | 664
COc1ccc(CNC(=O)C2CCc3nc(N4CCOCC4)ncc3C2)cc1 (configuration not stated) | 777

Compound | RP-LC retention time [s]
CCOC(=O)c1oc2ccc(S(=O)(=O)N3CC4CN(C)CC(C3)O4)cc2c1C | 649
O=C(Cn1nc2ccc(C(=O)NCc3ccccc3)cn2c1=O)NCCC1=CCCCC1 | 811
Cc1cc(-c2nnc(-c3ccc(F)cc3)o2)c(C)n1CC(=O)Nc1ccccc1 | 977
Cc1ccc(-c2cc(=O)n3c4ccccc4n(CC(=O)NC4CCCC4)c3n2)cc1 | 942
O=C(Cc1csc2nc(-c3ccccc3)cn12)NCc1ccc2c(c1)OCO2 | 744
O=C(NCCc1ccccc1)c1ccc2c(c1)CCN2C(=O)C1CC1 | 814
Cc1noc2nc(CCC(=O)NC(C)c3ccccc3)nc(N3CCC(C)CC3)c12 (configuration not stated) | 941
Cc1ccccc1-c1nc(-c2cccc(-c3ccnn3C)c2)no1 | 1220
COC(=O)Cn1c(C)cc(=O)n2nc(-c3cccc(C)c3)nc12 | 784
O=C(CN1CCN(Cc2cccc(Cl)c2)C1=O)N1CCN(C2CCCCC2)CC1 | 648
COc1ccc(CC(=O)N2C[C@@H]3C[C@H]2C[C@@H]3NC(=O)c2cccs2)cc1Cl | 764
O=C(NCCC1=CCCCC1)C(=O)NCC1(CO)CC1 | 713
O=C(c1cccc(OC(F)(F)F)c1)N1C[C@@H]2C[C@H]1C[C@@H]2NS(=O)(=O)c1ccccc1 | 887
c1ccc(-c2nc(-c3ccncc3)no2)c(OC2CCNC2)c1 (configuration not stated) | 604
Cn1nc(C(=O)N2CCCCC2)c2c1CCN(C(=O)CCC(=O)NCCCN1CCCCC1)C2 | 579
O=c1ccn2c(n1)SC(c1ccccc1)C2 (configuration not stated) | 655
COc1ccc(CNC(=O)NCc2nnnn2-c2ccc(F)c(F)c2)cc1OC | 678
O=C(NCc1ccco1)C(=O)NCC1OCCN1C(=O)c1ccc2c(c1)OCO2 (configuration not stated) | 653
COc1cccc(CNC(=O)c2c(C)sc3ccn(Cc4ccc(F)cc4)c(=O)c23)c1 | 980
COc1ccc(C2(C(=O)N3CCC(n4c(C)cnc4-c4ccccc4)C3)CC2)cc1 (configuration not stated) | 661
CCC(C)NC(=O)c1ccc(Cn2nc(C)c(S(=O)(=O)N(C)C)c2C)cc1 (configuration not stated) | 754
Cc1cc(C2CCCN2C(=O)c2c(F)cccc2Cl)no1 (configuration not stated) | 773
O=C(c1ccc(-c2ccsc2)nc1)N1CCCCC1 | 792

Compound | RP-LC retention time [s]
Cc1ccccc1Nc1c(-c2ccccn2)nc2cnccn12 | 941
CCOC(=O)Cc1sc(Nc2nc(C)cc(C)n2)nc1-c1ccccc1 | 989
Cc1ccc(NC(=O)Cn2c(C(C)C)nc3c(c2=O)CCN(Cc2ccccc2)C3)cc1C | 761
O=C(C1=CCN(Cc2cccc(F)c2)CC1)N1CCN(c2ccccc2)CC1 | 642
CN1CCCN(C(=O)c2cn3ccnc(-c4ccccc4)c3n2)CC1 | 710
Cc1ccc(NC(=O)C2CCCN(S(=O)(=O)c3cn(C(C)C)cn3)C2)cc1F (configuration not stated) | 847
O=C(Cc1csc(NC(=O)C2CCC(=O)N2)n1)NCCC1=CCCCC1 (configuration not stated) | 643
O=C(c1ccccn1)N1CC(c2nc(-c3ccccc3)no2)C2(CCOCC2)C1 (configuration not stated) | 743
O=C1CC(c2noc(-c3cc(Cl)ccc3F)n2)CN1c1ccc(F)cc1 (configuration not stated) | 1100
Cc1ccc(S(=O)(=O)N2CCCC2c2nc(-c3cccc(C(F)(F)F)c3)no2)cc1 (configuration not stated) | 1210
COCCN1C(=O)c2ccccc2C(C(=O)NCCC(C)C)C1c1cccs1 (configuration not stated) | 874
CCCn1nc(CNC(=O)c2ccc3c(c2)OCO3)c2ccccc21 | 843
COc1ccccc1NC(=O)C1CCN(S(C)(=O)=O)c2ccccc2O1 (configuration not stated) | 916
Cc1ccc2[nH]cc(CCN3CC(C(=O)Nc4nnc(C(C)(C)C)s4)CC3=O)c2c1 (configuration not stated) | 801
Cc1ccc(N2CCC(NC(=O)Nc3ccccc3C)C2=O)cc1C (configuration not stated) | 875
CCOC(=O)c1ccccc1NC(=O)Cn1c(-c2ccccc2)nc(C)cc1=O | 1330
Cc1ccc(S(=O)(=O)N2CCc3c(c(-c4nnc(-c5ccccc5F)o4)nn3C)C2)cc1Cl | 1040
COc1ccc(Cn2c(C(C)C)nc3sc4ccccc4c(=O)c3c2=O)cc1 | 975
O=C(c1ccc2c(=O)n(-c3ccccc3)c(N3CCCCC3)nc2c1)N1CCN(c2ccccn2)CC1 | 669
O=C(NCc1ccccc1)C1CCCCN1S(=O)(=O)c1ccc(F)cc1 (configuration not stated) | 940
Cc1cc(C)cc(NC(=O)c2cccn2Cc2noc(C3CC3)n2)c1 | 994
